These results are taken from ChEMBL document CHEMBL1201862, “PubChem BioAssay data set” (2004).

Common to all, as to test: NCI anticancer screen, dose series, 48 h
The test system of assay [1] is A549.
The subject of assay [2] is NCI-H23.
Assay [3] concerns A498.
The subject of assay [4] is NCI-H226.
In assay [5] the test system is SK-MEL-28.
The test system of assay [6] is EKVX.
The test system of assay [7] is HCT-15.
In assay [8] the test system is CAKI-1.
Assay [9] has as its system IGROV-1.
Assay [10] relates to K562.
In assay [11] the test system is Malme-3M.
Assay [12] has as its system SNB-19.
Assay [13] relates to CCRF-CEM.
In assay [14] the test system is ACHN.
In assay [15] the test system is OVCAR-3.
The test system of assay [16] is HOP-62.
For assay [17], the system named is DU-145.
Assay [18] deals with MDA-MB-231.
For assay [19], the system named is MCF7.

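1) Cells in 96-well plates. 2) Compound, 48 h, 5 concentrations. 3) Linear interpolation between surrounding doses. 4) Unreached endpoint = highest concentration. Here, GI50 denotes the concentration required for 50% inhibition of growth.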 Activity calls are given as the source filed them. No stated cut-off is given here; in the data, active = GI50 up to about 1.1 µM and inactive = higher. Bounds are passed on as bounds.

Take `COC1OC(CO)C(O)C(NC(=O)N(C)N=O)C1O` (stereo not drawn): the GI50 in assay [1], in assay [2], in assay [3], in [4], in assay [5] and in assay [6] was > 100 µM (inactive) each time. Further, the GI50 in assay [7] was greater than 100 µM; in assay [8], > 100 µM (inactive); in [9], > 100 µM (inactive); in [10], > 100 µM (inactive); in assay [11] it was > 100 µM (inactive); in [12] it was > 100 µM (inactive). In addition, the GI50 in [13], in assay [14] and in assay [15] was > 100 µM (inactive) each time.

Turning to `COC(=O)c1c(O)ccc2c1c1c(n2C)C(=O)c2ccccc2C1=O`, the GI50 in assay [1] is 14.5 µM (inactive); in assay [2], 19.7 µM (inactive); in assay [3], > 100 µM (inactive); in [4], 9.02 µM (inactive); in assay [5] it was 32.7 µM (inactive); in [16], 14.8 µM (inactive). Moreover, the GI50 in assay [6] is 42 µM (inactive); in assay [7], 13.1 µM; in [17], 11.9 µM (inactive); in assay [18] it was 10 µM (inactive); in assay [8] it was 7.69 µM (inactive); in assay [9] it was 4 µM (inactive). Moreover, the GI50 was > 100 µM (inactive) in [10]; 42.5 µM (inactive) in assay [11]; 16.3 µM (inactive) in assay [12]; 6.37 µM (inactive) in assay [13]; 9.29 µM (inactive) in assay [14]; 35.3 µM (inactive) in [15]. Besides, in assay [19], the GI50 was 9.18 µM (inactive).

Regarding `COc1ccc(C(=O)C(C(=O)C(=O)Nc2nc3ccc(OC)cc3s2)c2ccc(OC)cc2)cc1` (stereo not drawn), the GI50 in assay [1], in assay [2], in [3], in assay [4], in [5] and in assay [16] was > 100 µM (inactive) each time. For the same compound, the GI50 is > 100 µM (inactive) in assay [6]; greater than 100 µM in [7]; > 100 µM (inactive) in assay [8]; > 100 µM (inactive) in assay [9]; > 100 µM (inactive) in assay [10]; > 100 µM (inactive) in assay [11]. Also, the GI50 in assay [12], in assay [13], in [14] and in assay [15] was > 100 µM (inactive) in each case.

As to `O=C(O)CNc1c2ccccc2[n+]([O-])c2ccccc12`, the GI50 in assay [1] was > 100 µM (inactive); in assay [2], 60.7 µM (inactive); in assay [3], > 100 µM (inactive); in assay [4] it was > 100 µM (inactive); in [5], 42.2 µM (inactive); in [16] it was > 100 µM (inactive). The GI50 in assay [6] was > 100 µM (inactive); in assay [7] it was 72.1 µM; in [8], > 100 µM (inactive); in assay [9], > 100 µM (inactive); in [10], 13.9 µM (inactive); in [11], 61.4 µM (inactive). In addition, the GI50 in [12] was > 100 µM (inactive); in assay [13], 21.2 µM (inactive); in assay [14], 65.5 µM (inactive); in assay [15] it was > 100 µM (inactive).

Regarding `CN(C)C(=S)/N=c1\ss/c(=N\S(=O)(=O)c2ccccc2)n1C`, the GI50 in [1], in assay [2], in assay [3], in assay [4], in assay [5] and in assay [16] was > 100 µM (inactive) each time. Also, the GI50 is > 100 µM (inactive) in assay [6]; greater than 100 µM in assay [7]; > 100 µM (inactive) in assay [8]; > 100 µM (inactive) in [9]; > 100 µM (inactive) in [10]; > 100 µM (inactive) in [11]. Further, the GI50 in assay [12], in [13] and in assay [14] was > 100 µM (inactive) throughout.

Regarding `CCC(C(=O)C(=O)C(CC)P1(=O)OC(C)(C)CN1C(C)(C)C)P1(=O)OC(C)(C)CN1C(C)(C)C` (stereo not drawn), the GI50 in assay [1], in assay [2], in assay [3], in assay [4], in assay [5] and in [16] was > 100 µM (inactive) in each case. Also, the GI50 in [6] is > 100 µM (inactive); in [7] it was greater than 100 µM; in [17], > 100 µM (inactive); in assay [18] it was > 100 µM (inactive); in [8], > 100 µM (inactive); in assay [9], > 100 µM (inactive). Besides, the GI50 is 31.8 µM (inactive) in assay [10]; > 100 µM (inactive) in [12]; > 100 µM (inactive) in assay [13]; > 100 µM (inactive) in assay [14]; > 100 µM (inactive) in assay [15]; 68.5 µM (inactive) in [19].

Consider `N#C/C(=C\c1ccccc1O)C(N)=O`, for which the GI50 in assay [1] is > 100 µM (inactive); in assay [2] it was 82.4 µM (inactive); in [3], > 100 µM (inactive); in assay [4], 46.8 µM (inactive); in assay [5], > 100 µM (inactive); in [16], > 100 µM (inactive). The GI50 in [6] is 59.4 µM (inactive); in [7], 87.7 µM; in [8] it was 54.8 µM (inactive); in assay [9], > 100 µM (inactive); in assay [10], 51.2 µM (inactive); in assay [11] it was > 100 µM (inactive). In addition, the GI50 was 71.8 µM (inactive) in assay [12], 23.6 µM (inactive) in assay [13], 48.9 µM (inactive) in [14] and 48.5 µM (inactive) in [15].

Consider `CN1C(=O)C2C3C=C4c5ccccc5N(c5ccccc5)C4(C2C1=O)[C@H]1C(=O)N(C)C(=O)[C@@H]31` (stereo partly drawn), for which the GI50 in [1], in [2], in [3], in assay [4], in assay [5] and in assay [16] was > 100 µM (inactive) each time. Further, the GI50 in [6], in [10], in assay [11], in assay [12], in assay [13] and in assay [14] was > 100 µM (inactive) in each case. The GI50 in assay [15] is > 100 µM (inactive).

Regarding `COC(=O)Cc1cc(=O)n2c3ccccc3n(C)c2c1C#N`, the GI50 in [1], in [2], in assay [3], in [4], in assay [5] and in assay [16] was > 100 µM (inactive) each time. Besides, the GI50 in [6] is > 100 µM (inactive); in assay [7], greater than 100 µM; in assay [8] it was > 100 µM (inactive); in assay [9] it was > 100 µM (inactive); in assay [10], > 100 µM (inactive); in assay [11] it was > 100 µM (inactive). The GI50 in assay [12], in assay [14] and in assay [15] was > 100 µM (inactive) throughout.

In the case of `CN(C)CCNC(=O)c1cccc2nc3cc(Cl)ccc3nc12`, the GI50 was 2.56 µM (inactive) in assay [1]; 2 µM (inactive) in assay [2]; 1.65 µM (inactive) in assay [3]; 1.64 µM (inactive) in assay [4]; 2.9 µM (inactive) in assay [5]; 2.14 µM (inactive) in [16]. The GI50 in assay [6] was 4.25 µM (inactive); in assay [7], 2.43 µM; in assay [8], 4.59 µM (inactive); in assay [9], 5.25 µM (inactive); in assay [10], 1.18 µM (inactive); in [11] it was 1.85 µM (inactive). Further, the results for the GI50 in assay [12], in [14] and in [15] were 3.4 µM (inactive), 1.02 µM (active) and 2.17 µM (inactive), respectively.

As for `c1ccc2c(c1)ccc1ncccc12`, the GI50 is > 100 µM (inactive) in assay [1]; > 100 µM (inactive) in [2]; 55.8 µM (inactive) in assay [3]; > 100 µM (inactive) in assay [4]; > 100 µM (inactive) in assay [5]; > 100 µM (inactive) in assay [16]. In addition, the GI50 is > 100 µM (inactive) in assay [6]; 58.2 µM in assay [7]; > 100 µM (inactive) in [17]; > 100 µM (inactive) in assay [18]; 85.9 µM (inactive) in [8]; > 100 µM (inactive) in assay [9]. In addition, the GI50 in assay [10] is > 100 µM (inactive); in assay [11], > 100 µM (inactive); in assay [12], 85.7 µM (inactive); in [14], > 100 µM (inactive); in assay [15], > 100 µM (inactive); in [19], > 100 µM (inactive).

Turning to `c1ccc2cc3[s+]snc3cc2c1`, the GI50 in assay [1], in assay [2], in assay [3], in [4], in assay [5] and in assay [16] was > 100 µM (inactive) each time. In addition, the GI50 was > 100 µM (inactive) in [6]; greater than 100 µM in assay [7]; > 100 µM (inactive) in assay [8]; > 100 µM (inactive) in [9]; > 100 µM (inactive) in assay [10]; > 100 µM (inactive) in assay [11]. Moreover, the GI50 is > 100 µM (inactive) in assay [12], 89.7 µM (inactive) in [13], > 100 µM (inactive) in [14] and > 100 µM (inactive) in assay [15].

Take `CCCCOCc1cc(CN2CCN(C)CC2)c(O)c2ncccc12`: the GI50 was 23.6 µM (inactive) in [1]; 14.5 µM (inactive) in [2]; 24.8 µM (inactive) in assay [3]; 20.8 µM (inactive) in assay [4]; 31.4 µM (inactive) in assay [5]; 14.4 µM (inactive) in assay [16]. For the same compound, the GI50 was 23.5 µM (inactive) in [6]; 2.77 µM in assay [7]; 24.6 µM (inactive) in assay [8]; 29.3 µM (inactive) in assay [9]; 3.26 µM (inactive) in assay [10]; 21.3 µM (inactive) in assay [11]. For the same compound, the GI50 in [12] is 30.8 µM (inactive); in assay [13], 3.07 µM (inactive); in assay [14] it was 6.24 µM (inactive); in assay [15], 7.59 µM (inactive).
